Test systems include CHRF288-11; CMK; CMS; M07e; ML-2; MOLM-13; MV4-11; U937.
What all share (set-up): species or system AML cell lines (8); Primary HTS, single concentration about 10 uM, Cell Titer Glo viability; log10 luminescence, per cent inhibition relative to cycloheximide control
Common to all, as to conditions: 72 h, relative to cycloheximide control, log10 luminescence; inhibitor

The structures appear in SMILES notation.

In the case of `Fc1ccc(Nc2nccc(-c3c(-c4ccc(C(F)(F)F)cc4)nn4ncccc34)n2)cc1F` [SJ000573224-1, U17838/186/3], the CHRF288-11 %inh in the test on CHRF288-11 was -0.9437%. In addition, the CMK %inh in the test on CMK amounted to 0.9298%. In the test on CMS, the CMS %inh was -1.104%. For the same compound, in the test with M07e, the M07e %inh is on record as -1.97%. In addition, the ML-2 %inh in the test on ML-2 stood at 2.7%. For the same compound, in the test on MOLM-13, the MOLM-13 %inh was -1.248%. The MV4-11 %inh in the test on MV4-11 is recorded as -1.825%. The U937 %inh in the test on U937 worked out at 0.5152%.
Turning to `FC(F)(F)c1ccc(-c2nn3ncccc3c2-c2ccnc(Nc3ccc4c(c3)OCCO4)n2)cc1` [SJ000573225-1, U17838/185/2], the CHRF288-11 %inh in the test on CHRF288-11 worked out at 13.54%. For the same compound, the CMK %inh in the test on CMK is -4.267%. Further, the CMS %inh in the test with CMS is recorded as -3.296%. For the same compound, the M07e %inh in the test on M07e was 2.059%. Further, in the test on ML-2, the ML-2 %inh worked out at 1.234%. For the same compound, the MOLM-13 %inh in the test on MOLM-13 is reported as -3.312%. The MV4-11 %inh in the test with MV4-11 turned out to be 7.035%. For the same compound, the U937 %inh in the test on U937 was -2.674%.
Turning to `COc1cc(C=NNc2ncnc3c2cnn3-c2ccccc2)ccc1O` [SJ000573226-1, U14681/58/1], the CHRF288-11 %inh in the test with CHRF288-11 is 10.72%. Further, in the test with CMK, the CMK %inh is -0.5633%. In addition, the CMS %inh in the test with CMS came out at 3.107%. The M07e %inh with M07e is recorded as 11.87%. The ML-2 %inh with ML-2 was -0.2562%. In addition, the MOLM-13 %inh in the test on MOLM-13 came out at 3.51%. Moreover, the MV4-11 %inh in the test on MV4-11 came to 35.25%. In addition, the U937 %inh in the test with U937 is 8.322%.
Regarding `CN(C)CCOc1ccc(-c2cc(-c3ccc4c(c3)CCC4=NO)c(-c3ccncc3)o2)cc1` [SJ000573227-1, JS84326-047A1], the CHRF288-11 %inh in the test on CHRF288-11 is listed as 127%. For the same compound, in the test with CMK, the CMK %inh is 15.46%. The CMS %inh in the test on CMS worked out at 6.225%. In the test with M07e, the M07e %inh was 14.13%. Moreover, the ML-2 %inh with ML-2 was 66.89%. In the test on MOLM-13, the MOLM-13 %inh is 21.06%. In the test with MV4-11, the MV4-11 %inh came to 2.356%. Further, the U937 %inh in the test on U937 is given as 9.989%.
Consider `CCc1nccc2c1nc(-c1nonc1N)n2CC` [SJ000573228-1, DW100508-159A1], for which, in the test with CHRF288-11, the CHRF288-11 %inh turned out to be 7.841%. For the same compound, in the test on CMK, the CMK %inh was found to be 3.989%. The CMS %inh with CMS was -0.9805%. For the same compound, the M07e %inh in the test on M07e was -1.816%. For the same compound, the ML-2 %inh with ML-2 is 3.812%. For the same compound, in the test with MOLM-13, the MOLM-13 %inh was 4.708%. Also, the MV4-11 %inh in the test with MV4-11 turned out to be 4.392%. For the same compound, in the test on U937, the U937 %inh is recorded as 6.241%.
`Cn1c(-c2nonc2N)nc2cnccc21` [SJ000573229-1, SD100950-025A1]: in the test with CHRF288-11, the CHRF288-11 %inh was 1.476%. The CMK %inh with CMK is given as 8.868%. In addition, in the test with CMS, the CMS %inh is listed as 2.573%. Further, the M07e %inh with M07e is recorded as -6.783%. Further, the ML-2 %inh in the test with ML-2 was 1.359%. In addition, in the test on MOLM-13, the MOLM-13 %inh was found to be 0.5998%. In addition, the MV4-11 %inh in the test on MV4-11 amounted to 1.313%. Further, in the test on U937, the U937 %inh amounted to 2.832%.
`COc1ccc(-c2nn3ncccc3c2-c2ccnc(Nc3ccc(F)c(F)c3)n2)cc1` [SJ000573231-1, U17838/182/3]: the CHRF288-11 %inh in the test on CHRF288-11 is recorded as -2.425%. The CMK %inh with CMK is given as 1.273%. For the same compound, the CMS %inh with CMS worked out at 1.385%. The M07e %inh in the test on M07e is on record as -2.16%. Besides, the ML-2 %inh in the test on ML-2 was determined as 2.035%. The MOLM-13 %inh in the test on MOLM-13 is -1.234%. Besides, the MV4-11 %inh with MV4-11 is on record as -1.012%. The U937 %inh in the test on U937 was -1.69%.
For the compound `COc1ccc2c(-c3ccnc(Nc4cccc(OC(F)(F)F)c4)n3)cnn2n1` [SJ000573232-1, U17838/93/4], the CHRF288-11 %inh with CHRF288-11 was determined as 5.074%. In addition, the CMK %inh in the test on CMK is -2.18%. The CMS %inh in the test on CMS stood at 1.867%. Besides, the M07e %inh in the test with M07e is 3.247%. Further, the ML-2 %inh in the test on ML-2 is reported as 8.399%. In addition, the MOLM-13 %inh with MOLM-13 is -2.645%. In the test with MV4-11, the MV4-11 %inh worked out at 0.503%. Moreover, the U937 %inh in the test with U937 worked out at 2.538%.
Turning to `CCOc1ccc2c(-c3ccnc(Nc4cc(OC)cc(C(F)(F)F)c4)n3)cnn2n1` [SJ000573233-1, U17838/82/6], the CHRF288-11 %inh with CHRF288-11 stood at 13.25%. Further, in the test on CMK, the CMK %inh is reported as -2.522%. Further, the CMS %inh with CMS is reported as 0.7407%. In addition, the M07e %inh in the test on M07e is given as 5.562%. In addition, the ML-2 %inh in the test with ML-2 came to 0.4459%. Besides, the MOLM-13 %inh in the test on MOLM-13 is recorded as -2.068%. Also, the MV4-11 %inh in the test with MV4-11 came out at 0.1159%. Also, in the test with U937, the U937 %inh is 1.137%.
Take `Clc1ccc(CNc2nccc(-c3cnn4ncccc34)n2)cc1` [SJ000573234-1, U16767/129/1]: the CHRF288-11 %inh in the test with CHRF288-11 is on record as 14.43%. In addition, in the test on CMK, the CMK %inh was 3.942%. In the test with CMS, the CMS %inh is 12.69%. Further, the M07e %inh with M07e is on record as 7.216%. The ML-2 %inh in the test on ML-2 is on record as 6.981%. In addition, in the test on MOLM-13, the MOLM-13 %inh turned out to be 8.357%. In addition, the MV4-11 %inh in the test with MV4-11 came to 36.98%. In addition, the U937 %inh in the test on U937 is 20.4%.
Consider `CN1CCC(n2cnc(-c3ccc(F)cc3)c2-c2ccnc(Nc3ccccc3)n2)CC1` [SJ000573236-1, TG19207-284A1], for which, in the test on CHRF288-11, the CHRF288-11 %inh amounted to 30.13%. Further, the CMK %inh in the test with CMK is 43.62%. In the test with CMS, the CMS %inh amounted to 10.11%. For the same compound, the M07e %inh with M07e was 7.373%. The ML-2 %inh in the test with ML-2 came to 9.737%. The MOLM-13 %inh with MOLM-13 is listed as 50.36%. In addition, in the test on MV4-11, the MV4-11 %inh is 26.4%. The U937 %inh with U937 is reported as 6.434%.
On to `Cc1nn(C)c2cc(N(C)c3ccnc(Nc4cccc(S(N)(=O)=O)c4)n3)ccc12` [SJ000573237-1, U17574/1/1], for which, in the test on CHRF288-11, the CHRF288-11 %inh turned out to be 20.72%. The CMK %inh with CMK is 54.18%. Also, the CMS %inh in the test with CMS is given as 12.43%. Moreover, in the test with M07e, the M07e %inh amounted to 4.667%. In addition, the ML-2 %inh in the test on ML-2 was 1.956%. For the same compound, the MOLM-13 %inh in the test with MOLM-13 was 82.12%. For the same compound, the MV4-11 %inh in the test on MV4-11 is 42.73%. Besides, the U937 %inh in the test with U937 was found to be 9.474%.
Consider `CN(C)CCNC(=O)Nc1ccc(N(C)c2ccnc(Nc3ccc(CS(C)(=O)=O)cc3)n2)cc1` [SJ000573239-1, U17983/95/3], for which the CHRF288-11 %inh in the test on CHRF288-11 came to 29.73%. The CMK %inh with CMK turned out to be 26.79%. Besides, the CMS %inh in the test with CMS is given as -0.9741%. The M07e %inh with M07e is on record as 0.06927%. Also, the ML-2 %inh in the test with ML-2 is on record as 15.37%. Besides, the MOLM-13 %inh in the test on MOLM-13 is recorded as 92.53%. Moreover, the MV4-11 %inh in the test with MV4-11 stood at 73.54%. Further, the U937 %inh with U937 is given as -1.201%.
For `COc1ccc(CNC(=O)c2ccc(-c3cc(-c4nnc(C)o4)ccc3C)cc2)cc1` [SJ000573240-1, R5419/62/2], in the test with CHRF288-11, the CHRF288-11 %inh worked out at 2.517%. In the test with CMK, the CMK %inh is -2.585%. Besides, the CMS %inh in the test on CMS is given as -0.9608%. In addition, the M07e %inh in the test on M07e was determined as 1.245%. In the test with ML-2, the ML-2 %inh was determined as 2.422%. For the same compound, in the test with MOLM-13, the MOLM-13 %inh is given as 2.636%. In addition, the MV4-11 %inh with MV4-11 is -0.02622%. In addition, the U937 %inh with U937 is on record as 0.2137%.
Consider `Cc1cc(O)cc(C)c1/C=C/c1cncc(C(=O)N(C)C)c1` [SJ000573241-1, U11962/4/2], for which the CHRF288-11 %inh with CHRF288-11 stood at 4.933%. For the same compound, the CMK %inh in the test on CMK was 1.656%. In addition, the CMS %inh in the test with CMS is 2.581%. Besides, the M07e %inh with M07e was determined as 3.606%. For the same compound, in the test on ML-2, the ML-2 %inh is given as -0.6112%. Moreover, in the test on MOLM-13, the MOLM-13 %inh is -1.208%. Besides, the MV4-11 %inh in the test on MV4-11 amounted to 0.1016%. Also, the U937 %inh in the test on U937 is reported as -1.176%.
As to `COC(=O)c1ccc2c(c1)C(=Cc1cc(Br)c(O)c(Br)c1)C(=O)N2` [SJ000573242-1, U8097/138/1], in the test with CHRF288-11, the CHRF288-11 %inh is listed as 6.512%. Also, in the test with CMK, the CMK %inh was determined as 10.16%. Moreover, in the test on CMS, the CMS %inh was found to be 10.7%. In addition, the M07e %inh with M07e was 3.423%. For the same compound, the ML-2 %inh with ML-2 came out at 8.878%. In the test with MOLM-13, the MOLM-13 %inh was determined as 7.69%. Further, the MV4-11 %inh in the test with MV4-11 worked out at 16.92%. The U937 %inh in the test on U937 is reported as 4.474%.
As for `NCc1ccc(-c2nc(-c3ccc(Cl)c(O)c3)c(-c3ccncc3)[nH]2)cc1` [SJ000573243-1, AN48585-012A1], the CHRF288-11 %inh in the test on CHRF288-11 is -2.078%. Further, in the test on CMK, the CMK %inh is reported as 0.6536%. In addition, the CMS %inh with CMS is given as -0.03858%. Further, the M07e %inh with M07e is reported as 3.038%. Moreover, the ML-2 %inh in the test on ML-2 is reported as 1.975%. Besides, in the test with MOLM-13, the MOLM-13 %inh turned out to be 4.769%. For the same compound, the MV4-11 %inh in the test with MV4-11 worked out at 1.86%. In addition, in the test on U937, the U937 %inh was -0.0474%.
Consider `CCn1c(-c2nonc2N)nc2cnc(Oc3cccc(NC(=O)c4ccc(N(C)C)cc4)c3)cc21` [SJ000573244-1, DG202759-186A1], for which the CHRF288-11 %inh with CHRF288-11 was found to be 1.25%. Besides, the CMK %inh with CMK amounted to 54.89%. Also, the CMS %inh with CMS was determined as 1.931%. The M07e %inh in the test with M07e was -4.099%. The ML-2 %inh in the test on ML-2 is recorded as 13.68%. Besides, in the test on MOLM-13, the MOLM-13 %inh was 0.8338%. Further, the MV4-11 %inh in the test with MV4-11 is 28.29%. For the same compound, the U937 %inh in the test with U937 was found to be 5.13%.

(Values after PMC6522510 (Nature Communications, 2019).)
